One assay deals with COLO 205. Put plainly: FACS analysis of putative CSC surface markers. The class given is cell-based. The following applies: five days of SC-1 treatment. From the text:
A BD FACsAria (BD Biosciences, San Jose, CA) was utilized for FACS analysis according to standard procedures. The instrument was equipped with a 488 nm 100 mW blue laser, a 638 nm 30 mW red laser, and a 405 nm 50 mW violet laser. The software package Diva 5.0 (BD Biosciences) was used for collection and analysis of data. The alignment of the three lasers in the flow cell was verified prior to running tumor cell samples by running Rainbow Beads (Spherotech). The six colors being used in the analysis were then compensated to account for spectral overlap emitted by the fluorochromes within each laser as well as across the lasers using a semi-automated process. […] The data was then run through the Diva software compensation matrices and the amount of “spectral bleed” from other fluorochromes into the fluorochrome of interest’s channel was determined and automatically compensated.
Treated and untreated cells (1×10^6 cells/condition) were harvested with trypsin EDTA (Invitrogen), washed, and then labeled with a six antibody cocktail (antibodies against the following epitopes: CD44, CD24, CD133, CD326, CD166, and P-glycoprotein in PBS without calcium and magnesium supplemented with 2% FBS) or appropriate isotype control antibodies. […] The specific amounts needed for each labeled antibody were determined through titration studies. […]

A further assay deals with colon tumor lines. The following applies: five day exposure to 0.1 µM SC-1.

Protocol for colon tumor lines: In all experiments, each tumor line was cultured in 60 mm^2 tissue culture treated dishes at an initial concentration of 62,500/ml (total 4 ml) before addition of 0.1 µM SC-1 or an equivalent amount of diluent (DMS0) the next day. Five day exposures were conducted. The final concentration utilized for treatment for all tumor lines was determined by evaluating a range of SC-1 concentrations (0.01 to 10 µM) for sphere formation and any cytotoxic effects in the HCT-116 tumor line.
*Each colon cell line was seeded on day 0 with 0.25 x 10^6 cell/60 mm^2 Petri dish. Compound (0.1 µM) was added on day 1 and cells were enzymatically harvested 5 days later.

`Cc1cc(Nc2ncc3c(n2)N(C)C(=O)N(c2cc(NC(=O)c4cccc(C(F)(F)F)c4)ccc2C)C3)n(C)n1` [SC-1]: in the assay with COLO 205, the “Expression of the putative CSC markers” value is reported as “No increased expression”. For the same compound, the “Cell number after in vitro SC-1 treatment vs control” value in the assay on colon tumor lines was “statistically significant decrease in cell number”.

For the origin of these results see PMC3578829, “A Small Molecule (Pluripotin) as a Tool for Studying Cancer Stem Cell Biology: Proof of Concept” (PLoS ONE, 2013).
